Measured values: PubChem BioAssay (NCI)
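48-hour exposure; five concentrations; linearly interpolated endpoints. TGI marks complete inhibition of growth.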

What was measured:
Assay in all cases: NCI tumour cell line growth inhibition, 48 h
786-0 renal = tested on: 786-0 renal
COLO 205 colon = tested on: COLO 205 colon
K-562 leukemia = tested on: K-562 leukemia
KM12 colon = tested on: KM12 colon
KM20L2 colon = tested on: KM20L2 colon
M14 melanoma = tested on: M14 melanoma
NCI-H23 lung = tested on: NCI-H23 lung
OVCAR-3 ovarian = tested on: OVCAR-3 ovarian
OVCAR-8 ovarian = tested on: OVCAR-8 ovarian
RPMI-8226 leukemia = tested on: RPMI-8226 leukemia
SF-539 CNS = tested on: SF-539 CNS
SK-OV-3 ovarian = tested on: SK-OV-3 ovarian
U251 CNS = tested on: U251 CNS
UACC-257 melanoma = tested on: UACC-257 melanoma
UO-31 renal = tested on: UO-31 renal
SK-MEL-2 melanoma = tested on: SK-MEL-2 melanoma
HS 578T breast = tested on: HS 578T breast
MCF7 breast = tested on: MCF7 breast
MDA-MB-231 breast = tested on: MDA-MB-231 breast
T-47D breast = tested on: T-47D breast

SMILES	TGI (786-0 renal) [µM]	TGI (COLO 205 colon) [µM]	TGI (K-562 leukemia) [µM]	TGI (KM12 colon) [µM]	TGI (KM20L2 colon) [µM]	TGI (M14 melanoma) [µM]	TGI (NCI-H23 lung) [µM]	TGI (OVCAR-3 ovarian) [µM]	TGI (OVCAR-8 ovarian) [µM]	TGI (RPMI-8226 leukemia) [µM]	TGI (SF-539 CNS) [µM]	TGI (SK-OV-3 ovarian) [µM]	TGI (U251 CNS) [µM]	TGI (UACC-257 melanoma) [µM]	TGI (UO-31 renal) [µM]	TGI (SK-MEL-2 melanoma) [µM]	TGI (HS 578T breast) [µM]	TGI (MCF7 breast) [µM]	TGI (MDA-MB-231 breast) [µM]	TGI (T-47D breast) [µM]
O=[N+]([O-])c1c(C=Nc2ccccc2)oc(-c2ccc3c(c2)OCO3)c1-c1ccc2c(c1)OCO2	> 100	> 100	> 100	> 100	> 100	> 100	> 100	> 100	> 100	> 100	> 100	> 100	> 100	> 100	> 100					
Brc1cc2c(cc1C1SCCS1)OCO2	> 100		> 100	> 100	> 100	> 100	> 100	> 100	> 100	> 100	> 100	> 100	> 100	> 100	> 100	> 100				
COc1ccc(C=C(c2ccc(OCc3ccccc3)cc2)c2ccc(OCc3ccccc3)cc2)cc1	> 100	> 100		> 100	> 100	> 100	> 100	> 100	> 100	> 100	> 100	> 100	> 100	> 100	> 100	> 100				
NC(N)=NS(=O)(=O)c1ccc(Nc2c3ccccc3nc3c(C(=O)Nc4ccc(S(N)(=O)=O)cc4)ccc(Cl)c23)cc1	> 100	> 100	> 100	> 100	> 100	> 100	> 100	> 100	> 100	> 100	> 100	> 100	> 100	> 100	> 100					
N#CCC(=O)N/N=C(\C(=O)Nc1ccc(Cl)c(Cl)c1)C1CN(c2ccccc2)N=C1N (configuration not stated)	> 100	> 100	> 100	> 100	> 100	> 100	> 100	> 100	> 100	> 100	> 100	> 100	> 100	> 100	> 100	> 100				
Cc1nn(-c2nc3ccccc3s2)c2c1C(=O)c1ccccc1-2	> 100	> 100	> 100	> 100	> 100	> 100	> 100	> 100		> 100	> 100	> 100	> 100	> 100	> 100	> 100				
COc1c(C)cc2c(c1O)C1NC(C2)[C@H](O)N2C3COC(=O)[C@@]4(CS[C@@H](c5c(OC(C)=O)c(C)c6c(c53)OCO6)C12)NCCC1=C4NC2C=CC=CC12 (some centres not stated)	< 0.01		0.0202		< 0.01	< 0.01	< 0.01	< 0.01	< 0.01	0.0161			< 0.01		0.0342	< 0.01				
CCOC(=O)c1ccc(NC(=O)SCCC(=O)O)cc1	> 100	> 100	> 100	> 100	> 100	> 100	> 100	> 100	> 100	> 100	> 100		> 100	> 100	> 100	> 100				
CCOP(=O)(OCC)C(C(=O)OC)C(=O)C(=O)Nc1c(C)cc(Br)cc1C (configuration not stated)	> 100	> 100	> 100	> 100	> 100	> 100	> 100	> 100	> 100	> 100	> 100	> 100	> 100	> 100	> 100	> 100				
Cc1nc2ccccc2c(=O)n1NC(=S)Nc1ccc(Cl)cc1[N+](=O)[O-]	> 100	> 100	> 100	> 100	> 100	> 100	> 100	> 100	> 100	> 100	> 100	> 100	> 100	> 100	> 100	> 100	> 100	> 100	> 100	> 100
COc1cc(/C=C\c2cccnc2)cc(OC)c1OC	> 100	69	> 100	> 100	> 100	97.2	> 100	> 100	> 100	47.7	> 100		> 100	> 100	> 100					
COc1ccccc1/C=C1\CCC(CCN2CCOCC2)C1=O (configuration not stated)	> 100		> 100	> 100	> 100	> 100	> 100	> 100	> 100	> 100	> 100			> 100	> 100	> 100				
O=c1[nH]cnc2c1CCCN2	> 100	> 100	> 100	> 100	> 100	> 100	> 100	> 100	> 100	> 100		> 100	> 100	> 100	> 100	> 100				
CN(Cc1ccccc1)C(=NC#N)N(C)Cc1ccccc1	> 100	> 100		> 100	> 100	> 100	> 100	> 100	> 100		> 100	> 100	> 100	> 100	> 100	> 100				
CC(=O)c1cccc(NC(=O)C(=O)Nn2c(N)nnc2N)c1	> 100	> 100	> 100	> 100	> 100	> 100	> 100		> 100	> 100	> 100	> 100	> 100	> 100	> 100	> 100				
COc1ccc2[nH]cc(CCNC(=O)[C@](O)(Cc3cn(C)c4ccccc34)[C@@]3(O)OCC(O)C3O)c2c1 (some centres not stated)	> 100	> 100	> 100	> 100	> 100	> 100	> 100	> 100	> 100	> 100	> 100	> 100	> 100	> 100		> 100				
CC(C)N1CN(C(C(=O)N[C@@H]2C(=O)N3C2SC(C)(C)C3C(=O)O)c2ccc(O)cc2)CSC1=S (some centres not stated)	> 100	> 100	> 100	> 100	> 100	> 100	> 100	> 100	> 100	> 100	> 100	> 100	> 100	> 100	> 100	> 100				
COc1cc(Nc2nc3ccc(C(F)(F)F)cc3nc2C(=O)O)cc(OC)c1OC	74.6	34.6	> 100	59.4		93.3	45.5	93.5	72.1	91.3	86.5	> 100	36.7	43	33.8	45.3	54.8	> 100	53.9	78.3
CN1Cc2cc3c(cc2-c2ccccc21)OCO3	> 100	> 100	> 100	> 100	> 100	> 100	> 100	> 100	> 100	> 100	> 100		> 100	> 100	> 100	> 100				
NS(=O)(=O)c1ccc(Nc2c3ccccc3nc3c(C(=O)NCCO)cccc23)cc1	0.283	0.206	0.887	0.283		0.326	0.293	0.318	0.902	0.337	0.27	0.649	0.205	0.315	0.532	0.334	0.79	0.176	0.362	0.169
Cc1ccc(C(=O)OCC(C)C)cc1N=NN(C)C	> 100	> 100	> 100	> 100	> 100	> 100	> 100	90.6	> 100	> 100	> 100	> 100	> 100	71.1	> 100	> 100	> 100	> 100	> 100	> 100
Clc1cc2n[se]nc2cc1Cl	> 100		> 100	> 100	> 100	> 100	> 100		> 100	> 100	> 100	> 100	> 100	> 100	> 100	> 100				
CCCCCCCC(=O)OCC1OC(OC)C(NC(=O)N(CCCl)N=O)C(O)C1O (configuration not stated)	22.7	30.8	> 58	27.7	> 59.2	21.6	29.4	47.7	57.2	53.1	16.5	97.1	> 70.1	41.3	45.9	> 57.2				
COC1CC(NC(=O)C(F)(F)F)C(OC(C)=O)C(C)O1 (configuration not stated)	> 100	> 100	> 100	> 100		> 100	> 100	> 100	> 100	> 100	> 100	> 100	> 100	> 100	> 100	> 100	> 100	> 100	> 100	> 100
C#CCCCOc1ncccn1	> 100	> 100	> 100	> 100		> 100	> 100	> 100	> 100	> 100	> 100	> 100	> 100	> 100	> 100	> 100	> 100	> 100	> 100	> 100
CCOc1ccc(NC(=O)C2=C(C)NC(C)=C(C(=O)Nc3ccc(OCC)cc3)C2c2ccccc2)cc1	> 100	> 100	> 100	> 100	> 100	> 100	> 100	> 100	> 100	> 100	> 100	> 100	> 100	> 100	> 100	> 100				
CC(C)=CCN1c2ccc(Cl)cc2NC(=O)CC1C (configuration not stated)	34.8	56.9	> 100	68.6		36.1	74.9	36	39.6	50.1	45.4	> 100	76.6	47.3	> 100	39.5	72.1	45.6	45.7	> 100
O=C1C2CN(Cc3ccccc3)CC1CN(CC1CC1)C2	> 100	> 100	> 100	> 100	> 100	> 100	> 100	> 100	> 100	> 100	> 100	> 100	> 100	> 100	> 100	> 100				
